Assay results as given in patent US6013628A, “Method for treating conditions of the eye using polypeptides” (Regents of the University of Minnesota, priority 1995, dated 2000).
No end group written: not given here.

Assays:
[1] = tested on: rabbit dermal fibroblasts; assay: Fibroblast-mediated collagen gel contraction (shrinkage) assay; format: cell-based
Text: As indicated above, proliferative vitreoretinopathy is the result of the proliferation and migration of fibroblasts, retinal pigment epithelial cells, and glial cells, and their organization into vitreous strands and epiretinal membranes. The vitreous strands and epiretinal membranes can contract, resulting in traction retinal detachment. The ability of rabbit dermal fibroblasts to cause contraction was examined in the collagen gel shrinkage model, which serves as an in vitro model of proliferative vitreoretinopathy (see Verdoon et al., Arch. Ophthalmol., 104, 1216-1219 (1986)). The ability of synthetic polypeptides derived from ECM molecules to inhibit contraction in the collagen gel shrinkage model using rabbit fibroblasts was also examined.
Fifty thousand rabbit dermal fibroblasts were suspended in 250 μl of fibroblast assay medium and mixed with 250 μl of Vitrogen and dispensed into the wells of a 48-well plate. The cells were preincubated with the desired polypeptide concentration (25, 50, 100, or 200 ug/ml) for one hour at 37° C. before mixing with the Vitrogen. Gelling occurred within 20 minutes after transfer of the mix of cell suspension and Vitrogen into an incubator at 37° C. with 5% CO2. The gels were overlaid with 250 μl of growth medium. All conditions were tested in duplicate wells. After 24 hours, the gels were detached from the sides of the wells by sweeping with a 27-gauge needle inserted at the interface between the plastic well and the gel (FIGS. 6-8).
Contraction of collagen gels was quantitated by use of planimetry. The gels were observed daily over the seven day period following detachment for evidence of contraction. The plates were photographed at the end of the seven days to record the amount of contraction. The contraction was measured by recording the area of each gel in each well off the photograph using a computer scanner. The area of the gels with polypeptide was compared to the area of the gels without the polypeptide. Planimetry is a two-dimensional measurement. […] The planimetry measurements accordingly underestimate the degree of contraction that actually occurred.
The collagen gels were cast with or without the incorporation of 25 ug/ml of fibronectin. […] These controls using deactivated cells indicate that cell growth and proliferation are required to effect gel shrinkage.

[2] = tested on: filtration surgery in rabbits; assay: Rabbit model of glaucoma filtration surgery failure; format: in vivo; design: IOP: unit not given here
Method: The rabbit model for filtration surgery is described by Bergstrom TJ, and Skuta GL. et al. in Arch. Ophthalmol, 109(12):1725-30, 1991. Two New Zealand white albino rabbits were used in the study. All animals were treated according to ARVO Animal Use Guidelines. All eyes were examined prior to initiation of a study and only clinically normal animals were used.
All the rabbits underwent preoperative examination and the intraocular pressure (IOP) was measured by pneumatonometry (PneumaTonometer, Digilab Model 30R, Cambridge, Mass.). The rabbits were anesthetized using an intramuscular injection of a mix of ketamine (30 mg/kg) and xylazine (5 mg/kg). A posterior lip sclerectomy was then performed on both eyes of each animal during the same period of anesthesia. […] The superotemporal conjuctiva and Tenon's capsule was incised near the fornix, and the dissection was performed anteriorly to the limbus. The anterior chamber was entered at the filtration site and a 1-mm by 3-mm block of limbal scleral tissue was excised from the posterior lip of the wound with the Kelly-Descemet punch. A peripheral iridectomy was then performed with Vannas scissors and curved jeweler's forceps. Hand-held thermal cautery was used as needed to provide hemostasis. The conjunctiva was closed with a running 10-0 nylon suture. The right eye received subconjunctival injection of the Hep-II dissolved in 0.15 ml distilled water at the end of the filtration surgery and the left eye, which served as the control, received an equal volume of distilled water. These and each of the subsequent injections were made into the area of the bleb. No prophylactic antibiotics, cycloplegic, or corticosteroid was applied to either eye intraoperatively or postoperatively. Postoperative evaluation included examination with a portable slit-lamp biomicroscope, evaluation of the filtering bleb and intraocular pressure measurements obtained with a pneumatonometer. At the end of the study the animals were sacrificed while under anesthesia with an intravenous injection of 1 cc of euthanasia solution.
The results of filtration surgery were evaluated by monitoring intraocular pressures and visual inspection of scarring and vascularization. The ability of ability of a synthetic polypeptide to prolong the effect of glaucoma treatment by filtration surgery was examined using the rabbit model. The right eye was treated with subconjunctival injection of 1 milligram of Hep-II dissolved in 0.15 ml of distilled water at the end of filtration surgery and every other day for a total of eight injections. The left eye served as the control and received an equal volume of distilled water on those days. The intraocular pressures (IOP) were checked using a pneumatonometer every day until day 9 and roughly every other day until day 28 (Table V and FIG. 27). […] Control eyes reached pre-operative pressures between about day 4 and day 9.

With “LAGSCLARFSTM [Hep-II, Leu-Ala-Gly-Ser-Cys-Leu-Ala-Arg-Phe-Ser-Thr-Met]” the “% Contraction” value ([1]; 200 ug type IV collagen peptide, cells preincubated 1 hr, gel surface area by planimetry at day 7, no peptide 36%) was 3%, the “Effect on fibroblast-mediated collagen gel contraction” value ([1]; gels cast with and without fibronectin) was “most potent inhibitory effects on contraction” and the “IOP in treated eyes versus control eyes” value ([2]; 1 milligram subconjunctival every other day, eight injections, 28 days, p<0.001) was “lower than the control eyes”. The IOP ([2]; Rabbit #3 OD (1 milligram Hep-II subconjunctival, eight injections), Post op #1, Pre op 32, control OS 22) was 24, the IOP ([2]; Rabbit #3 OD (1 milligram Hep-II subconjunctival, eight injections), Post op #2, Pre op 32, control OS 31) was 30 and the IOP ([2]; Rabbit #3 OD (1 milligram Hep-II subconjunctival, eight injections), Post op #3, Pre op 32, control OS 30) was 25. The IOP ([2]; Rabbit #3 OD (1 milligram Hep-II subconjunctival, eight injections), Post op #4, Pre op 32, control OS 32) was 23, the IOP ([2]; Rabbit #3 OD (1 milligram Hep-II subconjunctival, eight injections), Post op #5, Pre op 32, control OS 32) was 22 and the IOP ([2]; Rabbit #3 OD (1 milligram Hep-II subconjunctival, eight injections), Post op #6, Pre op 32, control OS 32) was 21. For the same sequence, the IOP ([2]; Rabbit #3 OD (1 milligram Hep-II subconjunctival, eight injections), Post op #7, Pre op 32, control OS 30) was 21, the IOP ([2]; Rabbit #3 OD (1 milligram Hep-II subconjunctival, eight injections), Post op #8, Pre op 32, control OS 31) was 24 and the IOP ([2]; Rabbit #3 OD (1 milligram Hep-II subconjunctival, eight injections), Post op #9, Pre op 32, control OS 30) was 22. For the same sequence, the IOP ([2]; Rabbit #3 OD (1 milligram Hep-II subconjunctival, eight injections), Post op #13, Pre op 32, control OS 30) was 24, the IOP ([2]; Rabbit #3 OD (1 milligram Hep-II subconjunctival, eight injections), Post op #14, Pre op 32, control OS 28) was 18 and the IOP ([2]; Rabbit #3 OD (1 milligram Hep-II subconjunctival, eight injections), Post op #15, Pre op 32, control OS 33) was 25. The IOP ([2]; Rabbit #3 OD (1 milligram Hep-II subconjunctival, eight injections), Post op #16, Pre op 32, control OS 35) was 27, the IOP ([2]; Rabbit #3 OD (1 milligram Hep-II subconjunctival, eight injections), Post op #18, Pre op 32, control OS 34) was 26 and the IOP ([2]; Rabbit #3 OD (1 milligram Hep-II subconjunctival, eight injections), Post op #20, Pre op 32, control OS 32) was 25. For the same sequence, the IOP ([2]; Rabbit #3 OD (1 milligram Hep-II subconjunctival, eight injections), Post op #21, Pre op 32, control OS 32) was 28, the IOP ([2]; Rabbit #3 OD (1 milligram Hep-II subconjunctival, eight injections), Post op #24, Pre op 32, control OS 32) was 26 and the IOP ([2]; Rabbit #3 OD (1 milligram Hep-II subconjunctival, eight injections), Post op #27, Pre op 32, control OS 34) was 33. The IOP ([2]; Rabbit #3 OD (1 milligram Hep-II subconjunctival, eight injections), Post op #28, Pre op 32, control OS 35) was 33, the IOP ([2]; Rabbit #4 OD (1 milligram Hep-II subconjunctival, eight injections), Post op #1, Pre op 34, control OS 25) was 24 and the IOP ([2]; Rabbit #4 OD (1 milligram Hep-II subconjunctival, eight injections), Post op #2, Pre op 34, control OS 25) was 30. It also gave an IOP ([2]; Rabbit #4 OD (1 milligram Hep-II subconjunctival, eight injections), Post op #3, Pre op 34, control OS 20) of 22, an IOP ([2]; Rabbit #4 OD (1 milligram Hep-II subconjunctival, eight injections), Post op #4, Pre op 34, control OS 25) of 22 and an IOP ([2]; Rabbit #4 OD (1 milligram Hep-II subconjunctival, eight injections), Post op #5, Pre op 34, control OS 30) of 24. It also gave an IOP ([2]; Rabbit #4 OD (1 milligram Hep-II subconjunctival, eight injections), Post op #6, Pre op 34, control OS 31) of 23, an IOP ([2]; Rabbit #4 OD (1 milligram Hep-II subconjunctival, eight injections), Post op #7, Pre op 34, control OS 30) of 23 and an IOP ([2]; Rabbit #4 OD (1 milligram Hep-II subconjunctival, eight injections), Post op #8, Pre op 34, control OS 32) of 25. It also gave an IOP ([2]; Rabbit #4 OD (1 milligram Hep-II subconjunctival, eight injections), Post op #9, Pre op 34, control OS 37) of 26, an IOP ([2]; Rabbit #4 OD (1 milligram Hep-II subconjunctival, eight injections), Post op #13, Pre op 34, control OS 32) of 27 and an IOP ([2]; Rabbit #4 OD (1 milligram Hep-II subconjunctival, eight injections), Post op #14, Pre op 34, control OS 27) of 20. For the same sequence, the IOP ([2]; Rabbit #4 OD (1 milligram Hep-II subconjunctival, eight injections), Post op #15, Pre op 34, control OS 35) was 25, the IOP ([2]; Rabbit #4 OD (1 milligram Hep-II subconjunctival, eight injections), Post op #16, Pre op 34, control OS 37) was 28 and the IOP ([2]; Rabbit #4 OD (1 milligram Hep-II subconjunctival, eight injections), Post op #18, Pre op 34, control OS 35) was 27. For the same sequence, the IOP ([2]; Rabbit #4 OD (1 milligram Hep-II subconjunctival, eight injections), Post op #20, Pre op 34, control OS 34) was 27, the IOP ([2]; Rabbit #4 OD (1 milligram Hep-II subconjunctival, eight injections), Post op #21, Pre op 34, control OS 40) was 32 and the IOP ([2]; Rabbit #4 OD (1 milligram Hep-II subconjunctival, eight injections), Post op #24, Pre op 34, control OS 34) was 28. The IOP ([2]; Rabbit #4 OD (1 milligram Hep-II subconjunctival, eight injections), Post op #27, Pre op 34, control OS 36) was 33, the IOP ([2]; Rabbit #4 OD (1 milligram Hep-II subconjunctival, eight injections), Post op #28, Pre op 34, control OS 36) was 35 and the “Effect on duration of filtration surgery effect” value ([2]; rabbits in vivo) was “prolongs the effect of filtration surgery”. For the same sequence, the “Day until which blebs remained avascular (appeared functional)” value ([2]; treated eyes, control eyes until day 10) was 18 days.
